The record followed here is PubChem BioAssay (NCI).

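1) Cells in 96-well plates. 2) Compound, 48 h, 5 concentrations. 3) Linear interpolation between surrounding doses. 4) Unreached endpoint = highest concentration. GI50 is the concentration that inhibits growth by half. At the TGI there is no net growth.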

Common to all, as to experiment: DTP human tumour cell line panel, 48 h
Assay [1] concerns MALME-3M melanoma.
The subject of assay [2] is NCI/ADR-RES ovarian.
Assay [3] has as its system HS 578T breast.
In assay [4] the test system is CCRF-CEM leukemia.
The test system of assay [5] is SF-295 CNS.
In assay [6] the test system is HT29 colon.
Assay [7] has as its system NCI-H23 lung.
Assay [8] concerns HCT-15 colon.
Assay [9] deals with PC-3 prostate.
The test system of assay [10] is NCI-H226 lung.

For the compound `O=C(O)c1ccccc1NCn1c(=S)sc2ccccc21`, the TGI (commonly the concentration giving total growth inhibition) is above 100 µM in assay [1]; above 100 µM in [2]; above 100 µM in assay [3]; 52.2 µM in [4]; above 100 µM in [5]; above 100 µM in assay [6]. The TGI in [7] is 63.4 µM; in assay [8], above 100 µM; in assay [9], above 100 µM.

`OCCN(CO)CO`: the TGI in assay [1], in [2], in assay [3], in assay [10], in assay [5] and in assay [6] was above 100 µM in each case. Also, the TGI in assay [7], in assay [8] and in assay [9] was above 100 µM throughout.

Take `CSC1=Nc2c(c(C)c(-c3ccccc3)n2COC(CO)CO)C2=NC(=O)CC(C)N12` (stereo not given): the GI50 – broadly, the concentration at which growth is held to half of that of the control – is above 100 µM in [1]; above 100 µM in [2]; above 100 µM in assay [3]; above 100000 nM in [4]; above 100 µM in assay [10]; above 100 µM in assay [5]. For the same compound, the GI50 is above 100 µM in assay [6], above 100000 nM in assay [7], above 100 µM in assay [8] and above 100 µM in assay [9]. The TGI in assay [1], in assay [2], in assay [3], in [4], in [10] and in assay [5] was above 100 µM in each case. In addition, the TGI in assay [6], in [7], in assay [8] and in [9] was above 100 µM each time.

Turning to `C=CC(=O)Nc1cc2c(Nc3ccc(F)c(Cl)c3)ncnc2cc1C#CC(C)(C)N1CCN(C)CC1`, the GI50 was 1.49 µM in assay [1]; 2.46 µM in [2]; 2.28 µM in assay [3]; 1240 nM in assay [4]; 4.06 µM in assay [10]; 2.94 µM in assay [5]. Also, the GI50 in [6] is 1.56 µM; in assay [7], 1720 nM; in assay [8] it was 1.68 µM; in assay [9], 1.93 µM. Further, the TGI amounted to 5.05 µM in assay [1]; 7.65 µM in [2]; 8.47 µM in assay [3]; 5.08 µM in [4]; 6.04 µM in assay [10]; 6.62 µM in assay [5]. Besides, the TGI amounted to 4.09 µM in [6], 3.78 µM in assay [7], 5.11 µM in assay [8] and 5.31 µM in [9].

For the compound `COc1ccc(C2NC(=S)NC3=C2CCOc2c3ccc3ccccc23)cc1` (stereo not given), the GI50 was 49.8 µM in assay [1]; 32.6 µM in [2]; 47.4 µM in assay [3]; above 100000 nM in assay [4]; 58.5 µM in assay [10]; 19.1 µM in [5]. The GI50 in assay [6] was 36.6 µM; in assay [7], above 100000 nM; in assay [8] it was 21.4 µM; in assay [9] it was above 100 µM. The TGI in assay [1], in assay [2], in assay [3], in [4], in assay [10] and in assay [5] was above 100 µM in each case. Moreover, the TGI in assay [6], in [7], in assay [8] and in assay [9] was above 100 µM throughout.

`COCC(C(=O)OC1C/C=C/C=C/C(=O)OC(C(C)C(O)C(C)CCC(OC(=O)C(C)N(C)C)C(C)C(OC(C)=O)C(C)/C=C/N(C)C=O)C/C=C/C(OC)CC(C)C/C=C(\C)C(OC)CCC(C)C(O)C1C)N(C)C` (stereo not given): the 50% growth inhibitory concentration (GI50) in assay [1] was below 0.0001 µM; in assay [2], below 0.0001 µM; in assay [3] it was below 0.0001 µM; in [4] it was below 0.1 nM; in [5], below 0.0001 µM; in assay [7], below 0.1 nM. For the same compound, the GI50 in assay [8] and in assay [9] was below 0.0001 µM each time. In addition, the TGI in assay [1] was 0.0225 µM; in assay [2], 0.000552 µM; in assay [3], below 0.0001 µM; in assay [4] it was 0.0139 µM; in assay [5], below 0.0001 µM; in assay [7], above 0.666 µM. Also, the TGI in assay [8] was 0.00194 µM; in assay [9], above 1 µM.

In the case of `COc1ccc(-c2c(N)noc2-c2cc(OC)c3c(c2)OCCO3)cc1`, the GI50 was 23.6 µM in [1]; below 0.01 µM in assay [2]; below 0.0106 µM in [3]; 16.6 nM in assay [4]; below 0.01 µM in assay [5]; below 0.01 µM in [6]. In addition, the GI50 is below 14 nM in assay [7], below 0.01 µM in assay [8] and below 0.0157 µM in [9]. Besides, the TGI in assay [1] was above 100 µM; in assay [2], 0.0226 µM; in [3], above 100 µM; in assay [4] it was 1.74 µM; in [5], 22.3 µM; in assay [6], 0.823 µM. Also, the TGI is above 100 µM in assay [8] and above 40.7 µM in assay [9].

As for `COc1cc(/C=C2\SC(N3CCCCC3)=NC2=O)ccc1OCCCCCCOc1ccc(/C=C2\SC(N3CCCCC3)=NC2=O)cc1OC`, the GI50 was 3.87 µM in assay [1]; 9.11 µM in assay [2]; 3.74 µM in assay [3]; 5.18 µM in [10]; 13.7 µM in [5]; 8.38 µM in assay [6]. Moreover, the GI50 was 12600 nM in assay [7], 15.2 µM in assay [8] and 12.4 µM in assay [9]. In addition, the TGI in assay [1] was 30 µM; in assay [2] it was 28.2 µM; in assay [3] it was 25.7 µM; in [10], 22 µM; in assay [5] it was 47.5 µM; in assay [6] it was 30.4 µM. Further, the TGI amounted to 40.9 µM in [7], 53.1 µM in assay [8] and 56.7 µM in assay [9].

Regarding `CCOC1Oc2ccc(C)cc2C(=O)/C1=C\Nc1ccc(S(N)(=O)=O)cc1` (stereo not given), the GI50 in assay [2] is 6.14 µM; in assay [3], 14.5 µM; in assay [10], 22.3 µM; in assay [5] it was 12.6 µM; in assay [6], 15.6 µM; in assay [7], 2920 nM. Also, the GI50 in assay [8] is 12.5 µM; in assay [9], 16.6 µM. In addition, the TGI in [2] was 18.5 µM; in assay [3], 42.6 µM; in assay [10], above 50 µM; in assay [5] it was 35.7 µM; in [6], above 50 µM; in assay [7], 12.4 µM. In addition, the TGI in assay [8] and in assay [9] was above 50 µM throughout.
